Source: patent US20220062371A1, “LIGAND-DRUG-CONJUGATES AS SUBSTRATES FOR SELECTIVE CLEAVAGE BY THE EXOPEPTIDASE ACTIVITY OF CATHEPSIN B” (DEBIOPHARM RESEARCH & MANUFACTURING S.A., priority 2017, published 2022)
Values joined by “and” are separate entries in the source; they are usually repeats but may differ in a detail not shown here. Equal values may be shown once. Read-outs that look alike come from different tables or passages of the source. Non-standard residues stand in square brackets, D forms with d. Residues, ends and D or L forms follow the SMILES beside them. *: point of attachment. Dolaproine = CO[C@@H]([C@@H]1CCCN1)[C@@H](C)C(=O)O; Dil = CC[C@H](C)[C@H](NC)[C@@H](CC(=O)O)OC; NMe2Val = CC(C)[C@@H](C(=O)*)N(C)C

How the values were obtained:
Experiment in all cases: Cytotoxic activity, Alamar Blue assay
Assay type in all cases: cell-based
[1] = tested on: SK-BR-3 (ErbB2-expressing) cells
Experimental: (§1) Log phase cultures of cell lines SK-OV-3 (ErbB2-expressing), SK-BR-3 (ErbB2-expressing), BT-474 (ErbB2-expressing) and MDA-MB-231 (ErbB2 negative) were collected and cells plated at seeding densities ranging from 1,500 to 12,000 cells/well in 96-well microtiter plates according to pre-determined conditions.
(§2) Assessment of cellular growth was done using Alamar Blue (available from Thermo Fisher Scientific) dye reduction assay. Alamar Blue was added to cells to constitute 10% culture volume. Cells were incubated for 4 to 6 hours, and dye reduction was measured by fluorescence on an EnSpire plate reader (Perkin Elmer). Background corrected fluorescence measurements were transformed in % scale by considering vehicle value as 100% activity (relative measurements). Next, relative measurements were analyzed using GraphPad Prism software to derive relative IC50. All experiments were done twice with 3 replicates per concentration. Error bars: SEM (n=3). Cytotoxicity of AF and AF-Arg on ErbB2-expressing SK-OV-3 and SK-BR-3 cells after 72 and 120 h of treatment. SK-OV-3 and SK-BR-3 cells were seeded the day before treatment in complete culture medium. After overnight resting, cells were treated with decreasing concentrations of test compounds in complete culture medium (AF: 10 μM-1 pM; AF-Arg: 10 μM-1 pM, log-dilution).
(§3) SK-OV-3, SK-BR-3 and MDA-MB-231 cells were seeded the day before treatment in complete culture medium.

[2] = tested on: SK-OV-3 (ErbB2-expressing) cells
Experimental: as §1, §2, §3

[3] = tested on: MDA-MB-231 (ErbB2 negative) cells; details: read-out: Relative IC50 at 96 h (day 4)
Experimental: as §1, §2, §3
BT-474 and MDA-MB-231 cells were seeded the day before treatment in complete culture medium.

[4] = tested on: SK-OV-3 (ErbB2-expressing) cells; details: ADC1 study, read-out: Relative IC50 at 96 h (day 4)
[5] = tested on: SK-BR-3 (ErbB2-expressing) cells; details: ADC1 study, read-out: Relative IC50 at 96 h (day 4)
[6] = tested on: BT-474 (ErbB2-expressing) cells; details: ADC3 study, read-out: Relative IC50 at 96 h (day 4)
Experimental: as §1
as §2, with “log-dilution). […]” for “log-dilution).”

[7] = SK-BR-3, run 1, 72 h, read-out: Relative IC50 at 72 h (day 3)
[8] = SK-BR-3, run 1, 120 h, read-out: Relative IC50 at 120 h (day 5)
[9] = SK-BR-3, run 2, 72 h, read-out: Relative IC50 at 72 h (day 3)
[10] = SK-BR-3, run 2, 120 h, read-out: Relative IC50 at 120 h (day 5)
[11] = SK-OV-3, run 1, 72 h, read-out: Relative IC50 at 72 h (day 3)
[12] = SK-OV-3, run 1, 120 h, read-out: Relative IC50 at 120 h (day 5)
[13] = SK-OV-3, run 2, 72 h, read-out: Relative IC50 at 72 h (day 3)
[14] = SK-OV-3, run 2, 120 h, read-out: Relative IC50 at 120 h (day 5)

Row | Compound | IC50 [1, 7] | IC50 [1, 8] | IC50 [1, 9] | IC50 [1, 10] | retained cytotoxic activity relative to the native drug (AF) ([1]; SK-BR-3 cells, 120 h) | IC50 [2, 11] | IC50 [2, 12] | IC50 [2, 13] | IC50 [2, 14] | retained cytotoxic activity relative to the native drug (AF) ([2]; SK-OV-3 cells, 120 h) | IC50 ([3]; MDA-MB-231, run 1, 96 h, ADC1 study) | IC50 ([3]; MDA-MB-231, run 2, 96 h, ADC1 study) | IC50 ([4]; SK-OV-3, run 1, 96 h) | IC50 ([4]; SK-OV-3, run 2, 96 h) | IC50 ([5]; SK-BR-3, run 1, 96 h) | IC50 ([5]; SK-BR-3, run 2, 96 h) | IC50 ([3]; MDA-MB-231, run 1, 96 h, ADC3 study) | IC50 ([3]; MDA-MB-231, run 2, 96 h, ADC3 study) | IC50 ([6]; BT-474, run 1, 96 h) | IC50 ([6]; BT-474, run 2, 96 h)
1 | AF-Arg | ~98 nM | 20.9 nM | ~111 nM | 24.9 nM | greater than 85% | 180 nM | 147 nM | 240 nM | 205 nM | about 70% | 15.2 nM | 5.84 nM | 82.6 nM | 244 nM | ~92.1 nM | 128 nM | – | – | – | –
2 | CC[C@H](C)[C@@H]([C@@H](CC(=O)N1CCC[C@H]1[C@H](OC)[C@@H](C)C(=O)N[C@@H](Cc1ccccc1)C(=O)O)OC)N(C)C(=O)[C@@H](NC(=O)[C@H](C(C)C)N(C)C)C(C)C [AF, Auristatin F, reference compound] (NMe2Val-V[Dil][Dolaproine]F-OH) | 37.4 nM | 18.8 nM | 53.7 nM | 21.8 nM | – | 82.8 nM | 100 nM and ~100 nM | 154 nM | 145 nM | – | – | – | – | – | – | – | – | – | – | –
3 | COc1cc2cc(c1Cl)N(C)C(=O)C[C@H](OC(=O)[C@H](C)N(C)C(=O)CCS)[C@]1(C)O[C@H]1[C@H](C)[C@@H]1C[C@@](O)(NC(=O)O1)[C@H](OC)/C=C/C=C(\C)C2 [DM1, N2′-deacetyl-N2′-(3-mercapto-1-oxopropyl)-maytansine, reference compound] | – | – | – | – | – | – | – | – | – | – | – | – | – | – | – | – | 44.2 nM | 57 nM | 2.8 nM | 3 nM
